Biological target: T1, GCS (Canis lupus familiaris, UniProt A0A8I3MXG6)
T1 sequence (A0A8I3MXG6 1-394): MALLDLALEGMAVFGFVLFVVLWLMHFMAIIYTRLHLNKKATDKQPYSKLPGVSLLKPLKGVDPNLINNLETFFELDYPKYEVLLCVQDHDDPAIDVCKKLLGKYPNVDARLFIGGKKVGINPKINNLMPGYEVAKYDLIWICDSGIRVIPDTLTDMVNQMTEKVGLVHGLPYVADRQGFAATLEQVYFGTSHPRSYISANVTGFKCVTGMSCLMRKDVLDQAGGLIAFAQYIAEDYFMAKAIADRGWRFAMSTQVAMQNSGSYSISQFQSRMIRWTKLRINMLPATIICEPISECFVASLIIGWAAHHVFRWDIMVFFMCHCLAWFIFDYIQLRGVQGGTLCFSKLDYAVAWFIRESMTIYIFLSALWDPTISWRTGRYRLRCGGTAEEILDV
Test: Assay 1: GCS Enzymatic Assay (MDCK cell lysate, C6-NBD-Ceramide, LC/MS)
Format: biochemical, canine
Conditions: Table 2; data without asterisk; read-out: IC50 (nM) generated from Assay 1
How it was run: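 LC/MS/MS measurement of glucosylceramide and NBD-ceramide after a 1 h, 37 °C reaction with 100 μM UDP-glucose and 10 μM C6-NBD-ceramide gave IC50s or percent inhibition.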

| Compound | IC50 |
| --- | --- |
| CC(C)n1ncc2ccc(C(=O)C(=O)N[C@H](CN3CCCC3)[C@H](O)c3cc(F)c4c(c3)OCCO4)cc21 [Example 307, N-((1R,2R)-1-(8-fluoro-2,3-dihydrobenzo[b][1,4]dioxin-6-yl)-1-hydroxy-3-(pyrrolidin-1-yl)propan-2-yl)-2-(1-isopropyl-1H-indazol-6-yl)-2-oxoacetamide] | < 50 nM |
| O=C(N[C@H](CN1CCCC1)[C@H](O)c1cc(F)c2c(c1)OCCO2)C(=O)c1cc2ccc(Cl)cc2s1 [Example 308, 2-(6-chlorobenzo[b]thiophen-2-yl)-N-((1R,2R)-1-(8-fluoro-2,3-dihydrobenzo[b][1,4]dioxin-6-yl)-1-hydroxy-3-(pyrrolidin-1-yl)propan-2-yl)-2-oxoacetamide] | < 50 nM |
| O=C(N[C@H](CN1CCCC1)[C@H](O)c1ccc(OC2CCCC2)c(Cl)c1)C(=O)c1ccc(-c2ccc(F)cc2)cc1 [Example 309, N-((1R,2R)-1-(3-chloro-4-(cyclopentyloxy)phenyl)-1-hydroxy-3-(pyrrolidin-1-yl)propan-2-yl)-2-(4′-fluoro-[1,1′-biphenyl]-4-yl)-2-oxoacetamide] | < 50 nM |
| Cc1c2cc(-c3ccc(C(=O)C(=O)N[C@H](CN4CCCC4)[C@H](O)c4ccc(OC5CC5)c(Cl)c4)cc3)ccc2nn1C(C)C [Example 310, N-((1R,2R)-1-(3-chloro-4-cyclopropoxyphenyl)-1-hydroxy-3-(pyrrolidin-1-yl)propan-2-yl)-2-(4-(2-isopropyl-3-methyl-2H-indazol-5-yl)phenyl)-2-oxoacetamide] | < 50 nM |
| CC(C)n1cc2cc(C(=O)C(=O)N[C@H](CN3CCCC3)[C@H](O)c3ccc(OC4CC4)c(Cl)c3)ccc2n1 [Example 311, N-((1R,2R)-1-(3-chloro-4-cyclopropoxyphenyl)-1-hydroxy-3-(pyrrolidin-1-yl)propan-2-yl)-2-(2-isopropyl-2H-indazol-5-yl)-2-oxoacetamide] | < 50 nM |
| CC(C)n1cc2ccc(C(=O)C(=O)N[C@H](CN3CCCC3)[C@H](O)c3cc(F)c4c(c3)OCCO4)cc2n1 [Example 312, N-((1R,2R)-1-(8-fluoro-2,3-dihydrobenzo[b][1,4]dioxin-6-yl)-1-hydroxy-3-(pyrrolidin-1-yl)propan-2-yl)-2-(2-isopropyl-2H-indazol-6-yl)-2-oxoacetamide] | < 50 nM |
| O=C(N[C@H](CN1CCCC1)[C@H](O)c1ccc(OC2CCC2)c(Cl)c1)C(=O)c1ccc(-c2ccc(F)cc2)cc1 [Example 313, N-((1R,2R)-1-(3-chloro-4-cyclobutoxyphenyl)-1-hydroxy-3-(pyrrolidin-1-yl)propan-2-yl)-2-(4′-fluoro-[1,1′-biphenyl]-4-yl)-2-oxoacetamide] | < 50 nM |
| Cc1nn(C(C)C)c2ccc(-c3ccc(C(=O)C(=O)N[C@H](CN4CCCC4)[C@H](O)c4ccc(OC5CC5)c(Cl)c4)cc3)cc12 [Example 314, N-((1R,2R)-1-(3-chloro-4-cyclopropoxyphenyl)-1-hydroxy-3-(pyrrolidin-1-yl)propan-2-yl)-2-(4-(1-isopropyl-3-methyl-1H-indazol-5-yl)phenyl)-2-oxoacetamide] | < 50 nM |

Other lines, results leading:

| IC50 | Compound |
| --- | --- |
| < 50 nM | O=C(N[C@H](CN1CCCC1)[C@H](O)c1ccc(OC2CC2)c(Cl)c1)C(=O)c1ccc(-c2ccc3scnc3c2)cc1 [Example 296, 2-(4-(benzo[d]thiazol-5-yl)phenyl)-N-((1R,2R)-1-(3-chloro-4-cyclopropoxyphenyl)-1-hydroxy-3-(pyrrolidin-1-yl)propan-2-yl)-2-oxoacetamide] |
| < 50 nM | O=C(N[C@H](CN1CCCC1)[C@H](O)c1ccc(OC2CC2)c(Cl)c1)C(=O)c1ccc(-c2ccc3ncsc3c2)cc1 [Example 297, 2-(4-(benzo[d]thiazol-6-yl)phenyl)-N-((1R,2R)-1-(3-chloro-4-cyclopropoxyphenyl)-1-hydroxy-3-(pyrrolidin-1-yl)propan-2-yl)-2-oxoacetamide] |
| < 50 nM | Cc1cc(C(=O)C(=O)N[C@H](CN2CCCC2)[C@H](O)c2ccc(OC3CC3)c(Cl)c2)ccc1-c1ccc(F)cc1 [Example 298, N-((1R,2R)-1-(3-chloro-4-cyclopropoxyphenyl)-1-hydroxy-3-(pyrrolidin-1-yl)propan-2-yl)-2-(4′-fluoro-2-methyl-[1,1′-biphenyl]-4-yl)-2-oxoacetamide] |
| < 50 nM | Cc1cc(C(=O)C(=O)N[C@H](CN2CCCC2)[C@H](O)c2cc(F)c3c(c2)OCCO3)ccc1-c1ccc(F)cc1 [Example 299, N-((1R,2R)-1-(8-fluoro-2,3-dihydrobenzo[b][1,4]dioxin-6-yl)-1-hydroxy-3-(pyrrolidin-1-yl)propan-2-yl)-2-(4′-fluoro-2-methyl-[1,1′-biphenyl]-4-yl)-2-oxoacetamide] |
| < 50 nM | O=C(N[C@H](CN1CCC1)[C@H](O)c1cc(Cl)c2c(c1)OCCO2)C(=O)c1ccc(-c2ccc(F)cc2)cc1 [Example 300, N-((1R,2R)-3-(azetidin-1-yl)-1-(8-chloro-2,3-dihydrobenzo[b][1,4]dioxin-6-yl)-1-hydroxypropan-2-yl)-2-(4′-fluoro-[1,1′-biphenyl]-4-yl)-2-oxoacetamide] |
| < 50 nM | N#Cc1ccc(-c2ccc(C(=O)C(=O)N[C@H](CN3CCCC3)[C@H](O)c3ccc(OC4CC4)c(Cl)c3)cc2)cc1 [Example 301, N-((1R,2R)-1-(3-chloro-4-cyclopropoxyphenyl)-1-hydroxy-3-(pyrrolidin-1-yl)propan-2-yl)-2-(4′-cyano-[1,1′-biphenyl]-4-yl)-2-oxoacetamide] |
| < 50 nM | O=C(N[C@H](CN1CCCC1)[C@H](O)c1ccc(OC2CC2)c(Cl)c1)C(=O)c1ccc2oc3ccc(Br)cc3c2c1 [Example 302, 2-(8-bromodibenzo[b,d]furan-2-yl)-N-((1R,2R)-1-(3-chloro-4-cyclopropoxyphenyl)-1-hydroxy-3-(pyrrolidin-1-yl)propan-2-yl)-2-oxoacetamide] |
| < 50 nM | [2H]C([2H])(C(=O)N[C@H](CN1CCCC1)[C@H](O)c1ccc(OC2CC2)c(Cl)c1)c1ccc(-c2ccc(F)cc2)cc1 [Example 303, N-[(1R,2R)-2-(3-chloro-4-cyclopropoxyphenyl)-2-hydroxy-1-(pyrrolidinylmethyl)ethyl]-2-[4-(4-fluorophenyl)phenyl]acetamide] |
| < 50 nM | O=C(N[C@H](CN1CCCC1)[C@H](O)c1ccc(OC2CC2)c(Cl)c1)C(=O)c1ccc2nn(Cc3ccc(F)cc3)cc2c1 [Example 304, N-((1R,2R)-1-(3-chloro-4-cyclopropoxyphenyl)-1-hydroxy-3-(pyrrolidin-1-yl)propan-2-yl)-2-(2-(4-fluorobenzyl)-2H-indazol-5-yl)-2-oxoacetamide] |
| < 50 nM | O=C(N[C@H](CN1CCCC1)[C@H](O)c1cc(F)c2c(c1)OCCO2)C(=O)c1ccc2nn(Cc3ccc(F)cc3)cc2c1 [Example 305, N-((1R,2R)-1-(8-fluoro-2,3-dihydrobenzo[b][1,4]dioxin-6-yl)-1-hydroxy-3-(pyrrolidin-1-yl)propan-2-yl)-2-(2-(4-fluorobenzyl)-2H-indazol-5-yl)-2-oxoacetamide] |
| < 50 nM | CC(C)n1ncc2ccc(C(=O)C(=O)N[C@H](CN3CCCC3)[C@H](O)c3ccc(OC4CC4)c(Cl)c3)cc21 [Example 306, N-((1R,2R)-1-(3-chloro-4-cyclopropoxyphenyl)-1-hydroxy-3-(pyrrolidin-1-yl)propan-2-yl)-2-(1-isopropyl-1H-indazol-6-yl)-2-oxoacetamide] |
